23 compounds from patent US20140058103A1, “Inhibitors of PI3K-Delta and Methods of Their Use and Manufacture” (Exelixis, Inc., priority 2010, published 2014) can be followed below.

The target of this test is PI3K delta (Homo sapiens, UniProt O00329). The test is described as follows: Luciferase-coupled chemiluminescence kinase assay (ATP consumption, KinaseGlo). The test is classed as biochemical. Put shortly: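 ATP consumption measured by KinaseGlo luciferase chemiluminescence after a 2 h reaction at ambient temperature, with ATP at or below the kinase KM. Ten inhibitor concentrations per curve; IC50 from four-parameter nonlinear regression.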
Sequence of PI3K delta (O00329 whole entry): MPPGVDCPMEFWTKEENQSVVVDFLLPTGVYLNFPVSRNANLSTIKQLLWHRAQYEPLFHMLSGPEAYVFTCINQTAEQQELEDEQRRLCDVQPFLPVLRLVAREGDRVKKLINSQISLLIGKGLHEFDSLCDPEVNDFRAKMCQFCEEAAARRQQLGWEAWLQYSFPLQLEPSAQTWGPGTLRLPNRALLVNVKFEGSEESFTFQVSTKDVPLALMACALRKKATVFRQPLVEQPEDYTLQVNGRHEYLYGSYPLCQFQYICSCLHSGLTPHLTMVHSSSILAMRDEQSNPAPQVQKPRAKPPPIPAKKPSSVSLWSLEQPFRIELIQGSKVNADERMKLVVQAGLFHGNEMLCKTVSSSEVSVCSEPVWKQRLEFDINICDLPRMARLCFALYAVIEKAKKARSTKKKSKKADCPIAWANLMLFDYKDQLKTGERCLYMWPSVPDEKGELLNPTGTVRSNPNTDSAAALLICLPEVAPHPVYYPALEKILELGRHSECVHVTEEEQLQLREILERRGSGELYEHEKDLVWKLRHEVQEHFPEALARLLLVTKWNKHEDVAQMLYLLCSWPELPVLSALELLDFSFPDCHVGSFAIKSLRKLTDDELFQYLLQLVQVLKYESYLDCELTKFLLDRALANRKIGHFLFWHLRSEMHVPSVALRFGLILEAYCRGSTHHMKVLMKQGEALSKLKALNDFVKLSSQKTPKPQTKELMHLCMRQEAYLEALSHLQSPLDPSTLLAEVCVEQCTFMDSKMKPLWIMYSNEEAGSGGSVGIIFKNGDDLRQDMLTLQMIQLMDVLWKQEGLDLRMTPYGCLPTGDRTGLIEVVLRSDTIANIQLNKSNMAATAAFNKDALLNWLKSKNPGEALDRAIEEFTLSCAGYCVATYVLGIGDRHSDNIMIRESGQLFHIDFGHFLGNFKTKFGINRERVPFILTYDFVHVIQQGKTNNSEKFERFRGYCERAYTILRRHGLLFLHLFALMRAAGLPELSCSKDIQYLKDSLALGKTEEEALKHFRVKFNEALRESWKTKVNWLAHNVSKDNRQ
Sequence of PI3K delta (P27986 whole entry partner): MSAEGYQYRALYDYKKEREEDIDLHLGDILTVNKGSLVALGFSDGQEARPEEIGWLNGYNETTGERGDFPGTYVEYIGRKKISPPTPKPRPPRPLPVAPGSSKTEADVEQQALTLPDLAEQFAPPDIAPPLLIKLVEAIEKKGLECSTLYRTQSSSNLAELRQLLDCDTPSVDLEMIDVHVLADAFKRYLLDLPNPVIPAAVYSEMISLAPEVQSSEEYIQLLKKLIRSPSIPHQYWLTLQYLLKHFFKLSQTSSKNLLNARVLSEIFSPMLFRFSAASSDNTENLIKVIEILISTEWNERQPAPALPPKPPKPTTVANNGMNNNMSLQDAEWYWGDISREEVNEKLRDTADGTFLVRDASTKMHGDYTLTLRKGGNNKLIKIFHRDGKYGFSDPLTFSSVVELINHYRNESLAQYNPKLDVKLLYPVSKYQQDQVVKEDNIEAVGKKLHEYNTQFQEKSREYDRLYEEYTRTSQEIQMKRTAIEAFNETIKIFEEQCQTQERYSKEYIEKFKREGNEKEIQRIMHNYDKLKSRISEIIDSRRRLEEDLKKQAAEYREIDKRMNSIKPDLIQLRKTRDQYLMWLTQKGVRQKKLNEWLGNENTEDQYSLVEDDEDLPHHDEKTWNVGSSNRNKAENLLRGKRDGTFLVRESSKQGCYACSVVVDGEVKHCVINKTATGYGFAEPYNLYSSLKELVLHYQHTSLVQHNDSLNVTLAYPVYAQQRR
In general terms: In Kinase-Glo more light means more ATP remaining.

For orientation: IC50 means the concentration that gives 50% inhibition. A lower IC50 goes with greater potency. `CCn1c(C(=O)NCC2(O)CC2)nc2c(N3CCC(n4c(=O)[nH]c5ccccc54)CC3)ncnc21` [Compound 188, 9-ethyl-N-[(1-hydroxycyclopropyl)methyl]-6-[4-(2-oxo-2,3-dihydro-1H-benzimidazol-1-yl)piperidin-1-yl]-9H-purine-8-carboxamide]: the IC50 was less than 50 nM.
With `CCn1c(C(=O)N2CC(F)(F)C2)nc2c(N3CCC(n4c(=O)[nH]c5ccccc54)CC3)ncnc21` [Compound 189, 1-(1-{8[(3,3-difluoroazetidin-1-yl)carbonyl]-9-ethyl-9H-purin-6-yl}piperidin-4-yl)-1,3-dihydro-2H-benzimidazol-2-one] the figure was less than 50 nM.
In turn, `CCn1c(C(=O)NCC(C)(C)C)nc2c(N3CCC(n4c(=O)[nH]c5ccccc54)CC3)ncnc21` [Compound 190, N-(2,2-dimethylpropyl)-9-ethyl-6-[4-(2-oxo-2,3-dihydro-1H-benzimidazol-1-yl)piperidin-1-yl]-9H-purine-8-carboxamide] came in with an IC50 of less than 50 nM.
With `CCn1c(C(=O)N2CCC(F)(F)C2)nc2c(N3CCC(n4c(=O)[nH]c5ccccc54)CC3)ncnc21` [Compound 191, 1-(1-{8-[(3,3-difluoropyrrolidin-1-yl)carbonyl]-9-ethyl-9H-purin-6-yl}piperidin-4-yl)-1,3-dihydro-2H-benzimidazol-2-one] the figure was less than 50 nM.
Next, `CCNC(=O)c1nc2c(N3CCC(n4c(=O)[nH]c5ccccc54)CC3)ncnc2n1CC` [Compound 192, N,9-diethyl-6-[4-(2-oxo-2,3-dihydro-1H-benzimidazol-1-yl)piperidin-1-yl]-9H-purine-8-carboxamide]: 50 to 250 nM.
Next, `CCCNC(=O)c1nc2c(N3CCC(n4c(=O)[nH]c5ccccc54)CC3)ncnc2n1CC` [Compound 193, 9-ethyl-6-[4-(2-oxo-2,3-dihydro-1H-benzimidazol-1-yl)piperidin-1-yl]-N-propyl-9H-purine-8-carboxamide]: less than 50 nM; `CCn1c(C(=O)NC2CCC2)nc2c(N3CCC(n4c(=O)[nH]c5ccccc54)CC3)ncnc21` [Compound 194, N-cyclobutyl-9-ethyl-6-[4-(2-oxo-2,3-dihydro-1H-benzimidazol-1-yl)piperidin-1-yl]-9H-purine-8-carboxamide]: less than 50 nM; `CCn1c(C(=O)NCCCCO)nc2c(N3CCC(n4c(=O)[nH]c5ccccc54)CC3)ncnc21` [Compound 195, 9-ethyl-N-(4-hydroxybutyl)-6-[4-(2-oxo-2,3-dihydro-1H-benzimidazol-1-yl)piperidin-1-yl]-9H-purine-8-carboxamide]: less than 50 nM.
Compound `CCn1c(C(=O)NC(C)C)nc2c(N3CCC(n4c(=O)[nH]c5ccccc54)CC3)ncnc21` [Compound 196, 9-ethyl-N-(1-methylethyl)-6-[4-(2-oxo-2,3-dihydro-1H-benzimidazol-1-yl)piperidin-1-yl]-9H-purine-8-carboxamide] gave an IC50 of less than 50 nM.
With `CCn1c(C(=O)NCC(C)(C)O)nc2c(N3CCC(n4c(=O)[nH]c5ccccc54)CC3)ncnc21` [Compound 197, 9-ethyl-N-(2-hydroxy-2-methylpropyl)-6-[4-(2-oxo-2,3-dihydro-1H-benzimidazol-1-yl)piperidin-1-yl]-9H-purine-8-carboxamide], the IC50 is less than 50 nM.
Next, `CCn1c(C(=O)NCCC(C)C)nc2c(N3CCC(n4c(=O)[nH]c5ccccc54)CC3)ncnc21` [Compound 198, 9-ethyl-N-(3-methylbutyl)-6-[4-(2-oxo-2,3-dihydro-1H-benzimidazol-1-yl)piperidin-1-yl]-9H-purine-8-carboxamide]: 50 to 250 nM; `CC(C)Cc1nnc(-c2nc3c(N4CCC(n5c(=O)[nH]c6ccccc65)CC4)ncnc3n2C)o1` [Compound 204, 1-(1-{9-methyl-8-[5-(2-methylpropyl)-1,3,4-oxadiazol-2-yl]-9H-purin-6-yl}piperidin-4-yl)-1,3-dihydro-2H-benzimidazol-2-one]: less than 50 nM; `Cn1c(C(=O)NCC2CC2)nc2c(N3CCC(n4c(=O)[nH]c5cc(F)ccc54)CC3)ncnc21` [Compound 205, N-(cyclopropylmethyl)-6-[4-(5-fluoro-2-oxo-2,3-dihydro-1H-benzimidazol-1-yl)piperidin-1-yl]-9-methyl-9H-purine-8-carboxamide]: 50 to 250 nM.
Next, `Cc1ccc2[nH]c(=O)n(C3CCN(c4ncnc5c4nc(C(=O)NCC4CC4)n5C)CC3)c2c1` [Compound 206, N-(cyclopropylmethyl)-9-methyl-6-[4-(6-methyl-2-oxo-2,3-dihydro-1H-benzimidazol-1-yl)piperidin-1-yl]-9H-purine-8-carboxamide]: 250 to 500 nM.
Next, `CCn1c(C(=O)NCc2nnc(C)o2)nc2c(N3CCC4(CC3)C(=O)Nc3ccccc34)ncnc21` [Compound 207, 9-ethyl-N-[(5-methyl-1,3,4-oxadiazol-2-yl)methyl]-6-(2-oxo-1,2-dihydro-1′H-spiro[indole-3,4′-piperidin]-1′-yl)-9H-purine-8-carboxamide]: 250 to 500 nM; `CCn1c(C(=O)NC2COC2)nc2c(N3CCC(n4c(=O)[nH]c5ccccc54)CC3)ncnc21` [Compound 208, 9-ethyl-N-oxetan-3-yl-6-[4-(2-oxo-2,3-dihydro-1H-benzimidazol-1-yl)piperidin-1-yl]-9H-purine-8-carboxamide]: less than 50 nM; `CCn1c(-c2nnc(C(C)C)o2)nc2c(N3CCC4(CC3)C(=O)Nc3ccccc34)ncnc21` [Compound 209, 1′-{9-ethyl-8-[5-(1-methylethyl)-1,3,4-oxadiazol-2-yl]-9H-purin-6-yl}spiro[indole-3,4′-piperidin]-2(1H)-one]: less than 50 nM.
As to `CCn1c(-c2nnc(C3CC3)o2)nc2c(N3CCC4(CC3)C(=O)Nc3ccccc34)ncnc21` [Compound 210, 1′-[8-(5-cyclopropyl-1,3,4-oxadiazol-2-yl)-9-ethyl-9H-purin-6-yl]spiro[indole-3,4′-piperidin]-2(1H)-one], the half-maximal inhibitory concentration (IC50) was less than 50 nM.
Next, `Cn1c(C(=O)NCC2CC2)nc2c(N3CCC4(CC3)C(=O)Nc3c(Cl)cccc34)ncnc21` [Compound 211, 6-(7-chloro-2-oxo-1,2-dihydro-1′H-spiro[indole-3,4′-piperidin]-1′-yl)-N-(cyclopropylmethyl)-9-methyl-9H-purine-8-carboxamide]: less than 50 nM; `CCn1c(C(=O)NCC2CCC2)nc2c(N3CCC4(CC3)C(=O)Nc3ccccc34)ncnc21` [Compound 212, N-(cyclobutylmethyl)-9-ethyl-6-(2-oxo-1,2-dihydro-1′H-spiro[indole-3,4′-piperidin]-1′-yl)-9H-purine-8-carboxamide]: less than 50 nM.
Compound `CCn1c(C(=O)N2CC[C@@H](F)C2)nc2c(N3CCC4(CC3)C(=O)Nc3ccccc34)ncnc21` [Compound 213] came in with an IC50 of less than 50 nM.
Next, `CCn1c(C(=O)NC(C)C2CC2)nc2c(N3CCC4(CC3)C(=O)Nc3ccccc34)ncnc21` (centres unmarked) [Compound 214, N-(1-cyclopropylethyl)-9-ethyl-6-(2-oxo-1,2-dihydro-1′H-spiro[indole-3,4′-piperidin]-1′-yl)-9H-purine-8-carboxamide]: less than 50 nM; `CCn1c(C(=O)NCC2(O)CC2)nc2c(N3CCC4(CC3)C(=O)Nc3ccccc34)ncnc21` [Compound 215, 9-ethyl-N-[(1-hydroxycyclopropyl)methyl]-6-(2-oxo-1,2-dihydro-1′H-spiro[indole-3,4′-piperidin]-1′-yl)-9H-purine-8-carboxamide]: less than 50 nM.
